This is an account of results in patent US20050287232A1, “Skin immune function controlling agents” (priority 1999, published 2005).

Assay [1] relates to adenylate cyclase. The settings on record: olfactory cells of rats; Boekhoff et al. 1990; cited from earlier work.
The test system of assay [2] is Epidermal Langerhans' cells. The experiment in a line: Staining of epidermal Langerhans' cells (I-A antigen) after perfume exposure. The format is in vivo, mouse. As to the method: Female C57 BL/6 mice (aged 7-9 weeks) were used. Each group of five animals were placed in a cage (225×335×140 mm) and kept in a chamber maintained at a temperature of 21-25° C. and a relative humidity of 40-70%. The inhalation of a perfume into the animals was carried out by placing a Petri dish having a diameter of 10 cm in the cage, putting therein a filter paper impregnated with the perfume, and covering the dish with wire netting. (A filter paper impregnated with no perfume was used for a control group.) This animal experiment followed the National Research Council Guidelines. Epidermal Langerhans' cells were stained according to the well-known method. In brief, an ear of a mouse was incubated in a 3.8% aqueous solution of ammonium thioisocyanate at 37° C. for 20 minutes to separate the epidermis from the corium. The epidermal sheet was fixed with acetone and incubated in the culture supernatant of mouse hybridoma M5/114.15.2 (American Tissue Type Collection, Rockville, Md., USA) so as to cause the secretion of anti-I-A IgG. Then, the anti-I-A IgG was combined with fluorescein isothiocyanate (FITC) (Sigma, USA)-labeled anti-mouse IgG antibody. Cells positive for the I-A antigen were observed under a confocal laser scanning microscope (MRC600; Bio Rad, USA) and analyzed. Samples were collected from each group of five mice. Three regions of each sample were analyzed by a blind test.

The test system of assay [3] is adenylate cyclase. Particulars: olfactory cells of frogs; Sklar et al. 1986; cited from earlier work.
Assay [4] has as its system contact hypersensitivity reaction. In words: Contact hypersensitivity (CH) reaction induced and provoked with TNCB; perfume inhalation or topical application. The format is in vivo, mice. As to the method: Female C57 BL/6 mice (aged 7-9 weeks) were used. Each group of five animals were placed in a cage (225×335×140 mm) and kept in a chamber maintained at a temperature of 21-25° C. and a relative humidity of 40-70%. The inhalation of a perfume into the animals was carried out by placing a Petri dish having a diameter of 10 cm in the cage, putting therein a filter paper impregnated with the perfume, and covering the dish with wire netting. (A filter paper impregnated with no perfume was used for a control group.) This animal experiment followed the National Research Council Guidelines. […] After 5 days (on experimental day 6), a contact hypersensitivity reaction was provoked by applying 5 μl of a 1% acetone solution of the aforesaid antigen to both sides of the right ear of each animal. The contact hypersensitivity (hereinafter referred to as CH) reaction was evaluated by measuring the thickness of the swollen left and right ears on day 7 with a micrometer and calculating the difference between the measured values. In order to examine the effect of perfume inhalation at the time of sensitization, a Petri dish containing a filter paper impregnated with the aforesaid perfume was placed in the cage over a period of time extending from day 0 to day 2. In order to examine the effect of perfume inhalation at the time of immunity provocation, the aforesaid Petri dish was placed in the cage over a period of time extending from day 5 to day 7. In order to examine the effect of the direct application of a perfume to the skin, 50 μl of 0.1% […] or diluent (50% corn oil in acetone) was applied to a region to be sensitized, and the aforesaid antigen was applied thereto after 6 hours. The long-term effect was tested by applying 50 μl of 1% perfume or diluent every day over a period of time extending from day 0 to day 2.

Assay [5] shares this test system. The experiment in a line: CH reaction under restraint stress with perfume inhalation. It counts as in vivo, mice. The settings on record: for Swelling: DMMB inhalation, individual animals, right ear minus left ear thickness; for Average (swelling): DMMB, average of 5 values of Table III (1), given there in × 0.01 mm. As to the method:
Female C57 BL/6 mice (aged 7-9 weeks) (purchased from Charles River Japan) were used. Each group of five animals were placed in a cage (225×335×140 mm) and kept in a chamber maintained at a temperature of 21-25° C. and a relative humidity of 40-70%. The inhalation of a perfume into the animals was carried out by placing a Petri dish having a diameter of 10 cm in the cage, putting therein a filter paper impregnated with the perfume, and covering the dish with wire netting. (A filter paper impregnated with no perfume was used for a control group.) These animals were laid in a prone position and wrapped in a pliable fine-meshed wire net for 6 hours. This animal experiment gained the approval of the animal experimentation committee of our company following the National Research Council Guidelines.
Mice were sensitized by applying 2,4,6-trinitrochlorobenzene (TNCB) (10 μl of a 3% acetone solution) to the inner and outer surfaces of the left ear of each mouse. After 5 days, a CH reaction was provoked by applying TNCB (5 μl of a 1% acetone solution) to the inner and outer surfaces of the right ear of each mouse. After 24 hours, the swelling was evaluated by measuring the thicknesses of both ears with a micrometer (manufactured by Mitsutoyo) and subtracting the thickness of the left ear from that of the right ear. The exposure of the animals to a perfume was continued over a period of time extending from 24 hours before provocation to the measurement of the swelling. The restraint stress was imposed 24 hours before provocation and repeated immediately after provocation. This experiment was carried out by using the animals in groups of five and using 1,3-dimethoxy-5-methylbenzene (DMMB; purchased from Takasago International Inc.) as the perfume.
The values given in Table III, (1) are values obtained by subtracting the measured thickness of the left ear of each test animal from that of the right ear thereof.

Assay [6] relates to Langerhans' cells in the epidermis. The experiment in a line: Staining of Langerhans' cells after stress imposition with perfume inhalation. The format is in vivo, mice. The settings on record: DMMB at the time of stress imposition, FIG. 5. The protocol: Epidermal Langerhans' cells were stained according to the well-known method. In brief, an ear of a mouse was incubated in a 3.8% aqueous solution of ammonium thioisocyanate at 37° C. for 20 minutes to separate the epidermis from the corium. The epidermal sheet was fixed with acetone and incubated in the culture supernatant of mouse hybridoma M5/114.15.2 (American Tissue Type Collection, Rockville, Md., USA) so as to cause the secretion of anti-I-A IgG. Then, the anti-I-A IgG was combined with fluorescein isothiocyanate (FITC) (Sigma, USA)-labeled anti-mouse IgG antibody. Cells positive for the I-A antigen were observed under a confocal laser scanning microscope (MRC600; Bio Rad, USA) and analyzed. Samples were collected from each group of five mice. Three regions of each sample were analyzed by a blind test.
Female C57 BL/6 mice (aged 7-9 weeks) (purchased from Charles River Japan) were used. Each group of five animals were placed in a cage (225×335×140 mm) and kept in a chamber maintained at a temperature of 21-25° C. and a relative humidity of 40-70%. The inhalation of a perfume into the animals was carried out by placing a Petri dish having a diameter of 10 cm in the cage, putting therein a filter paper impregnated with the perfume, and covering the dish with wire netting. […]

Setting [7] is: Table I, after exposure to citralva, SD in parentheses.
The mark [8] stands for this setting: Table II, animals kept in the presence of citralva or lyral/lilial, SD in parentheses.

Values joined by “and” are separate entries in the source; they are usually repeats but may differ in a detail not shown here. Equal values may be shown once. Read-outs that look alike come from different tables or passages of the source.

For the compound `CC(C)=CCCC(C)=CC#N` [citralva, 3,7-dimethyl-2,6-octadienenitrile], the adenylate cyclase activation result in assay [1] is reported as “activates adenylate cyclase”. Further, in assay [2] (setting [7]), the Area per cell was 172.0 (78.3) μm^2, the “Intensity of I-A” value is listed as 89.9 (2.9), the “Number of LC” value is on record as 119.8 (15.0) per mm^2 and the Number of dendrites is recorded as 4.40 (0.92). For the same compound, in assay [2] (Table II), the “effect on Langerhans' cells, comparison of perfumes” value is recorded as “more powerful effect than lyral/lilial”. Moreover, in assay [2] (setting [8]), the “Intensity of I-A” value is reported as 84.9 (3.1) and the Number of dendrites is listed as 2.56 (0.12). For the same compound, the “change in number of LC” value in assay [2] (after exposure to citralva, versus control (Table I)) is reported as “significantly decreased”. Also, the “change in area of each I-A-positive cell” value in assay [2] (exposure to citralva, versus control) is listed as “significantly reduced”. In assay [3], the adenylate cyclase activation result is listed as “activates adenylate cyclase”. The “influence of topical application on the CH reaction” value in assay [4] (direct application to the skin, 50 μl of 0.1% or 1% perfume, FIG. 3) is on record as “neither citralva nor lyral/lilial exerts an influence on the CH reaction”. Further, the “suppression of the induction of the CH reaction” value in assay [4] (inhalation, exposure for 2 days at the time of induction (day 0 to day 2), FIG. 1 B) was “about 20%”. In addition, the “suppression of the provocation of the CH reaction” value in assay [4] (inhalation, exposure for 2 days at the time of provocation (day 5 to day 7), compared with controls, FIG. 1 A) is on record as “about 50%”. Further, in assay [4] (perfume inhalation, FIG. 2), the “effect on CH reaction, citralva compared with lyral/lilial” value is “significantly more powerful than that of lyral/lilial” and the “effect on the provocation of a CH reaction” value was “suppress the CH reaction”.

Take `COc1cc(C)cc(OC)c1` [DMMB, 1,3-dimethoxy-5-methylbenzene]: the Swelling in assay [5] (Restrained) was 17 × 0.01 mm (2×) and 18 × 0.01 mm and 15 × 0.01 mm and 14 × 0.01 mm; in assay [5] (Unrestrained), 17 × 0.01 mm (2×) and 16 × 0.01 mm (2×) and 13 × 0.01 mm. The “Average (swelling)” value in assay [5] (Restrained) was 16.2; in assay [5] (Unrestrained) it was 15.38. Besides, the “suppression of the skin immune reaction by stress” value in assay [5] (animal group having undergone DMMB inhalation, Table III, FIG. 4) is given as “not observed”. The “number of Langerhans' cells” value in assay [6] (compared with group without stress imposition) is reported as “of the same order”; in assay [6] (compared with stress imposition alone), “significantly increased”.
